# System: Pseudomonas aeruginosa (ATCC 27853)
# Assay: Zone of Inhibition Test (AATCC 147-1998, modified)
# Format: cell-based
# Details: diameter of inhibited colony formation; 1.5 by 1.5 cm test material on inoculated agar plate, 48 hours at ambient temperature
# Method: Zone of inhibition testing with a variety of gram negative and gram positive bacteria was performed. The test material was brought into contact with a known amount of test microorganisms on an agar plate for 48 hours at ambient temperature. At the end of the contact time the diameter of inhibited colony formation (zone of inhibition) surrounding the test material was measured. […] Referenced method AATCC 147-1998 “Antibacterial Activity Assessment of Textile Materials: Parallel Streak Method” with changes for following Zone of Inhibition procedure (AATCC is “American Association of Textile Chemists and Colorists” located in Research Triangle Park, N.C.): Organisms used in this study were Escherichia coli (ATCC 11229)/Staphylococcus aureus (ATCC 6538)/Pseudomonas aeruginosa (ATCC 27853) (ATCC is “American Type Culture Collection” an organization in Manassas, Va.). Washed cells were diluted in Butterfield's Phosphate buffer to a target titer of approximately 10^8 colony forming units (CFU)/mL. Agar plates for testing were brought to room temperature prior to inoculation. A sterile applicator swab was placed in cell suspension and excess fluid was expressed using the side of the centrifuge tube. […] At the end of the contact time, the diameter of inhibited colony formation (zone of inhibition) surrounding the test material was measured.
smiles,measurement,value
"CN[C@H](CC(C)C)C(=O)N[C@H]1C(=O)N[C@@H](CC(N)=O)C(=O)N[C@H]2C(=O)N[C@H]3C(=O)N[C@H](C(=O)N[C@H](C(=O)O)c4cc(O)cc(O)c4-c4cc3ccc4O)[C@H](O)c3ccc(c(Cl)c3)Oc3cc2cc(c3O[C@@H]2O[C@H](CO)[C@@H](O)[C@H](O)[C@H]2O[C@H]2C[C@](C)(N)[C@H](O)[C@H](C)O2)Oc2ccc(cc2Cl)[C@H]1O [Positive Control, vancomycin]",P. aeroginosa ZOI* (cm),1.9 cm

# — patent US9931679B2, “Method for cleaning hard surfaces” (KIMBERLY-CLARK WORLDWIDE, INC., priority 2013, dated 2018)
